In brackets after ≈: the same amount, converted by molar mass.
What was measured:
P. aeruginosa = test: MIC, two-fold serial dilution, P. aeruginosa; assay type: cell-based; conditions: Pseudomonas aeruginosa; read-out: Minimum Inhibitory Concentration (MIC), P. aeruginosa
Description: (§1) Table 2, using the reference drug ciprofloxacin, was presented with the MICs (minimal inhibitory concentrations) of these compounds against tested bacteria. […] The nature of aromatic substitution in the oxadiazole moiety tends to be correlated with higher antibacterial effects and the activity increased with (Ar) in the order of 2-pyridyl ≥ 3-pyridyl > 4-pyridyl > 2-Cl-Ph > 2-naphthyl.
(§2) On 96-well microtiter plates and […] of fresh bacterial culture of a single McFarland unit overnight, a double serial dilution of each compound […] in sterile standard saline was prepared for every single source well. Ciprofloxacin antibiotic (5 mg/mL^−1) and normal saline were included as standard references in each assay (see Appendix A).
(§3) In 96-well microtiter plates and […] of fresh bacterial culture of a single McFarland unit overnight, a double serial dilution of each compound […] in sterile standard saline was prepared for every single source well. Ciprofloxacin antibiotic (5 mg/mL^−1) and normal saline were included as standard reference in each assay. The plates were incubated at 37 °C overnight. As an indicator of bacterial growth, […] of p-iodonitrotetrazolium violet (INT) was added to each well and incubated at 37 °C for 30 min. […] The colorless tetrazolidium salt acts as an electron accepter and is reduced to a red colored formazan product by biological activity organisms. Where bacterial growth was inhibited, the solution in the well remained clear after incubation with INT.

E. coli DNA gyrase = target: T1, E. coli DNA gyrase (Escherichia coli, UniProt P0AES4+P0AES6); test: E. coli DNA gyrase assay; assay type: biochemical
T1 construct: purchased Inspiralis
Description: (§4) IC50 assay determination was carried out in accordance with the procedures previously stated (see Appendix A).
(§5) Inhibitory activities were determined in an assay from Inspiralis on streptavidin-coated 96-well microtiter plates from Thermo scientific Pierce. […] After washing off the unbound oligonucleotide, the enzyme test was performed. […] After that, the TF buffer (50 mM NaOAc with pH 5.0, 50 mM NaCl and 50 mM MgCl2) was added to terminate the enzymatic reaction. After additional incubation for 30 min at rt, during which biotin-oligonucleotide-plasmid triplex was 19 formed, the unbound plasmid was washed off using TF buffer and SybrGOLD in T10 buffer (10 mM Tris HCl with pH 8.0 and 1 mM EDTA) was added. […] Initial screening was done at 100 or 10 μM concentration of inhibitors. […] GraphPad Prism software was used to calculate the IC50 values. The result is given as the average value of three independent measurements. […] Determination of inhibitory activities on E. coli and S. aureus Topoisomerase IV IC50 values were determined in an assay from Inspiralis on streptavidin-coated 96-well microtiter plates from Thermo scientific Pierce. […] After washing off the unbound oligonucleotide, the enzyme test was performed. The reaction volume of 30 μL in buffer (40 mM HEPES KOH with pH 7.6, 100 mM potassium glutamate, 10 mM magnesium acetate, 10 mM DTT, 1 mM ATP, 0.05 mg/mL albumin) contained 1.5 U of topoisomerase IV from E. coli or S. aureus, 0.75 μg of pNO1 supercoiled plasmid, and 3 μL solution of the inhibitor in DMSO (10%) and Tween 20 (0.008%). […] After additional incubation for 30 min at rt, during which triplex (biotin-oligonucleotide-plasmid) was formed, the unbound plasmid was washed off using TF buffer and SybrGOLD in T10 buffer (10 mM Tris HCl with pH 8.0 and 1 mM EDTA) was added. […] Initial screening was done at 100 or 10 μM concentration of inhibitors. […] GraphPad Prism software was used to calculate the IC50 values. The result is given as the average value of three independent measurements.

E. coli = test: MIC, two-fold serial dilution, E. coli; assay type: cell-based; conditions: Escherichia coli; read-out: Minimum Inhibitory Concentration (MIC), E. coli
Description: as §1, §2, §3

B. subtilis = test: MIC, two-fold serial dilution, B. subtilis; assay type: cell-based; conditions: Bacillus subtilis; read-out: Minimum Inhibitory Concentration (MIC), B. subtilis
Description: as §1, §2, §3

[1] = tested on: Staphylococcus aureus (ATCC 12600); test: Kirby-Bauer disc diffusion, S. aureus; assay type: cell-based; conditions: % of ciprofloxacin
Description: (§6) An updated Kirby-Bauer disc diffusion method was used to assess the antimicrobial activity of the tested samples [32, 33, 34, 35]. Using ciprofloxacin as a reference drug, synthetic compounds 1–21 were tested in vitro for antibacterial activity against S. aureus and B. subtilis as Gram-positive strains and E. coli and P. aeruginosa as Gram-negative strains. […]. […].
(§7) The cultures used were collected from the Cairo University’s Microanalytical Centre, Faculty of Science. An updated Kirby-Bauer disc diffusion method was applied for antimicrobial activities of the tests 1–21 compounds [32, 33, 34, 35]. See Appendix A.
The cultures used were collected from the Cairo University’s Microanalytical Centre, Faculty of Science. An updated Kirby-Bauer disc diffusion method was applied for the antimicrobial activities of the tests for compounds 1–21 [28]. Shortly after, 10 mL of fresh medium was grown to 100 μL bacteria/food until a count of 10^8 cells/mL or 10^5 cells/mL was achieved. One hundred μL microbial suspension was spread over agar plates that suited the broth in which it was held. The selected colonies of each organism that may play a pathogenic function should be from the primary agar plates and tested by the disc diffusion method for susceptibility. Plates inoculated with filamentous fungi as Aspergillus flavus were incubated at 25 °C for 48 h; Gram positive bacteria as Staphylococcus aureus (ATCC 12600, Microanalytical center, Cairo, Egypt), Bacillus subtilis (ATCC 6051); Gram negative bacteria as Escherichia coli (ATCC 11775), Pseudomonas aeuroginosa (ATCC 10145) were incubated at 35–37 °C for 24–48 h and yeast as Candida albicans (ATCC 7102) was incubated at 30 °C for 24–48 h and, then the diameters of the inhibition zones were measured in millimeters. Standard discs of ciprofloxacin (antibacterial agent), fluconazole (antifungal agent) served as positive controls for antimicrobial activity, but filter discs impregnated with 10 µL of solvent (distilled water, chloroform, DMSO) were used as a negative control. Blank paper disks (Schleicher and Schuell, Cytiva, Spain) with a diameter of 8.0 mm were impregnated with 10 µL of tested concentration of the stock solutions. When a filter paper disc impregnated with a tested chemical is placed on agar, the chemical will diffuse from the disc into the agar. This diffusion will place the chemical in the agar only around the disc. The solubility of the chemical and its molecular size will determine the size of the area of chemical infiltration around the disc. […] For the disc diffusion, the zone diameters were measured with slipping calipers of the National Committee for Clinical Laboratory Standards, and the results are given in Table 1. […]

E. coli topoisomerase IV = target: T2, E. coli topoisomerase IV (Escherichia coli, UniProt P0AFI2+P20083); test: E. coli topoisomerase IV assay; assay type: biochemical
T2 construct: purchased Inspiralis
Description: as §4, §5

S. aureus = test: MIC, two-fold serial dilution, S. aureus; assay type: cell-based, Staphylococcus aureus; conditions: Staphylococcus aureus; read-out: Minimum Inhibitory Concentration (MIC), S. aureus
Description: as §1, §2, §3

[2] = Cell viability assay (MTT); assay type: cell-based; parameters: dose or concentration left out as unconfirmed; conditions: human, MCF-10A mammary gland epithelial cells, four days
Description: A human mammary gland epithelial cell line (MCF-10A) was used to conduct a cell viability assay. Compounds 2–6 were incubated with MCF-10A cells for four days, and the viability of the cells was determined using the 3-(4,5-dimethylthiazol-2-yl)-2,5-diphenyltetrazolium bromide (MTT) assay. All compounds had no cytotoxic effects, and the viability of the cells was greater than 85% for most of the compounds examined […], as shown in Table 4.
MTT Assay was performed to investigate the effect of compounds 2–6 on the viability of mammary epithelial cells (MCF-10A) (see Appendix A).

[3] = tested on: Bacillus subtilis (ATCC 6051); test: Kirby-Bauer disc diffusion, B. subtilis; assay type: cell-based; conditions: % of ciprofloxacin
Description: as §6, §7
(§8) The cultures used were collected from the Cairo University’s Microanalytical Centre, Faculty of Science. An updated Kirby-Bauer disc diffusion method was applied for the antimicrobial activities of the tests for compounds 1–21 [28]. […] Plates inoculated with filamentous fungi as Aspergillus flavus were incubated at 25 °C for 48 h; Gram positive bacteria as Staphylococcus aureus (ATCC 12600, Microanalytical center, Cairo, Egypt), Bacillus subtilis (ATCC 6051); Gram negative bacteria as Escherichia coli (ATCC 11775), Pseudomonas aeuroginosa (ATCC 10145) were incubated at 35–37 °C for 24–48 h and yeast as Candida albicans (ATCC 7102) was incubated at 30 °C for 24–48 h and, then the diameters of the inhibition zones were measured in millimeters. […]

[4] = tested on: Pseudomonas aeuroginosa (ATCC 10145); test: Kirby-Bauer disc diffusion, P. aeruginosa; assay type: cell-based, Pseudomonas aeruginosa; conditions: % of ciprofloxacin
Description: as §6, §7, §8

[5] = tested on: Escherichia coli (ATCC 11775); test: Kirby-Bauer disc diffusion, E. coli; assay type: cell-based; conditions: % of ciprofloxacin
Description: as §6, §7
The cultures used were collected from the Cairo University’s Microanalytical Centre, Faculty of Science. An updated Kirby-Bauer disc diffusion method was applied for the antimicrobial activities of the tests for compounds 1–21 [28]. Shortly after, 10 mL of fresh medium was grown to 100 μL bacteria/food until a count of 10^8 cells/mL or 10^5 cells/mL was achieved. One hundred μL microbial suspension was spread over agar plates that suited the broth in which it was held. The selected colonies of each organism that may play a pathogenic function should be from the primary agar plates and tested by the disc diffusion method for susceptibility. Plates inoculated with filamentous fungi as Aspergillus flavus were incubated at 25 °C for 48 h; Gram positive bacteria as Staphylococcus aureus (ATCC 12600, Microanalytical center, Cairo, Egypt), Bacillus subtilis (ATCC 6051); Gram negative bacteria as Escherichia coli (ATCC 11775), Pseudomonas aeuroginosa (ATCC 10145) were incubated at 35–37 °C for 24–48 h and yeast as Candida albicans (ATCC 7102) was incubated at 30 °C for 24–48 h and, then the diameters of the inhibition zones were measured in millimeters. […] For the disc diffusion, the zone diameters were measured with slipping calipers of the National Committee for Clinical Laboratory Standards, and the results are given in Table 1. […]

[6] = tested on: most of the pathogens tested; parameters: method as in doi:10.1002/jhet.2760; conditions: cited from earlier work
[7] = target: S. aureus topoisomerase IV; parameters: method as in PMID 29206345; conditions: value given in method; read-out: IC50 of internal standard, S. aureus topoisomerase IV; cited from earlier work

T1 sequence (P0AES4 whole entry, one chain of several): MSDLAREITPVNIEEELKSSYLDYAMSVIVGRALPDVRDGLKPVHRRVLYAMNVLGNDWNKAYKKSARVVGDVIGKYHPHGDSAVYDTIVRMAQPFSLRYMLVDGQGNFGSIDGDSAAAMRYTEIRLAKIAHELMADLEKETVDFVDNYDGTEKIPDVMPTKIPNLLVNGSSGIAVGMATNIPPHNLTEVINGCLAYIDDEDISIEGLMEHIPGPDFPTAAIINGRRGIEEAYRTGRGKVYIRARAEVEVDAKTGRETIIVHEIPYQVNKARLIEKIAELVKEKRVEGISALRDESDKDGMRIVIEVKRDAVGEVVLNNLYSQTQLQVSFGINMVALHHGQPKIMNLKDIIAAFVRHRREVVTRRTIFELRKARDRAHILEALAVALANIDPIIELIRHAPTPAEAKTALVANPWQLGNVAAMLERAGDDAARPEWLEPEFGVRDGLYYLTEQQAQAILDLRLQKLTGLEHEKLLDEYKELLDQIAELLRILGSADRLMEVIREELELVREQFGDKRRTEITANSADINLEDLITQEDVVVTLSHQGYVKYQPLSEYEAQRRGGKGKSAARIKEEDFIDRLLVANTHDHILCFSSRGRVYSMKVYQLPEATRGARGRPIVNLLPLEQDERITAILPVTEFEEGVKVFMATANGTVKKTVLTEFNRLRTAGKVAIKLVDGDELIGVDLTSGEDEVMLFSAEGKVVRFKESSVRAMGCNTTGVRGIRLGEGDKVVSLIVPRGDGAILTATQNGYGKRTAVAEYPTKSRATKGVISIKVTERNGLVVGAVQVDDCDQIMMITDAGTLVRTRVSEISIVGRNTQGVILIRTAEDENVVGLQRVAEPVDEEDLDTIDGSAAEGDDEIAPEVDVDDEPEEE
T2 sequence (P0AFI2 whole entry): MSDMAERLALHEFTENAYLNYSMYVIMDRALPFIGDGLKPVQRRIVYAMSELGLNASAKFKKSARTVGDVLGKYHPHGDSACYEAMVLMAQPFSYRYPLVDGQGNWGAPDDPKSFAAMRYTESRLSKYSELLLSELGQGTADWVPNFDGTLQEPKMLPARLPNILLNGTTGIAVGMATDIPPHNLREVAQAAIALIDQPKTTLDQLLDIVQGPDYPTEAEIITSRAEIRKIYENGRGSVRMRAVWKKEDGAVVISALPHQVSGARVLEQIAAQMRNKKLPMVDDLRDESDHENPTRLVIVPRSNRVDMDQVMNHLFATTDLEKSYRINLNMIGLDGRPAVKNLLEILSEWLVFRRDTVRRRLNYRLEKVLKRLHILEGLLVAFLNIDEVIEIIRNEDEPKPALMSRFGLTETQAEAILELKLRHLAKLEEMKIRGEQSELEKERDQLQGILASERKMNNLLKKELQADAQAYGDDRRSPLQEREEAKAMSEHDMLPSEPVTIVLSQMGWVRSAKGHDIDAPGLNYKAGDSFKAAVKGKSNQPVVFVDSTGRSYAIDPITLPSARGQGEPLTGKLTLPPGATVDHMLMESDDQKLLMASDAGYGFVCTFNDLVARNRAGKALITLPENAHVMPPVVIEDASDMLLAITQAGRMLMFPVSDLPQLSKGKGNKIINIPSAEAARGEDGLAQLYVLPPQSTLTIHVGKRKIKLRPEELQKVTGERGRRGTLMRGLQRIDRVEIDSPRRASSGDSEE
T2 sequence (P20083 whole entry): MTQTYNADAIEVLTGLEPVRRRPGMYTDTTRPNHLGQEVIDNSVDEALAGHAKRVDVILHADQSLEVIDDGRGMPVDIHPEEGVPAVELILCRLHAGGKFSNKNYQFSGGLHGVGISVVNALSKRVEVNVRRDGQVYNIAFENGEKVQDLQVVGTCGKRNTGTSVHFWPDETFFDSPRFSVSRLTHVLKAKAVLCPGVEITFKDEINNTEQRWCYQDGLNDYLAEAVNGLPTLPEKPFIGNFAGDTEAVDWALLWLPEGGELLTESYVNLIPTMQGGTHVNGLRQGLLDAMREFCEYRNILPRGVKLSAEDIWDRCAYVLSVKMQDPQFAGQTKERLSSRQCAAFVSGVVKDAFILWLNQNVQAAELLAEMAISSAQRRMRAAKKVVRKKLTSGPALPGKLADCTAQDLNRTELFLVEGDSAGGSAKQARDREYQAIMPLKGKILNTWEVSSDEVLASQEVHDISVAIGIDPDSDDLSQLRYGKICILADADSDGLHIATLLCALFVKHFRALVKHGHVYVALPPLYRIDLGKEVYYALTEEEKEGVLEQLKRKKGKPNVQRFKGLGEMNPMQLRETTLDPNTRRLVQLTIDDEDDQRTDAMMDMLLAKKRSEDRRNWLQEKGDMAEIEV

Which MIC (P. aeruginosa) does the source give for `O=C(O)c1cn(C2CC2)c2cc(N3CCN(Cn4nc(-c5ccncc5)oc4=S)CC3)c(F)cc2c1=O` [Compound 6, 1-Cyclopropyl-6-fluoro-4-oxo-7-[4-(5-pyridin-4-yl-2-thioxo-[1,3,4]oxadiazol-3-yl-methyl)-piperazin-1-yl]-1,4-dihydro-quinoline-3-carboxylic acid] here?
The MIC was 0.125 µg/mL (≈ 0.239 µM).

What about the IC50 (E. coli DNA gyrase) of the same compound?
Its IC50 is 0.18 ± 0.02 µM.

What about the MIC (E. coli) of the same compound?
Its MIC is 0.125 µg/mL (≈ 0.239 µM).

What about the MIC (B. subtilis) of the same compound?
Its MIC is 0.125 µg/mL (≈ 0.239 µM).

And the “antibacterial activity relative to ciprofloxacin, S. aureus” value [1]?
The value was 120%.

And the IC50 (E. coli topoisomerase IV)?
The IC50 was 8.92 ± 0.2 µM.

And the MIC (S. aureus)?
Its MIC is 0.031 µg/mL (≈ 0.0593 µM).

And the viability at 4 days [2]?
The viability at 4 days was 87%.

Which melting point does the source give for `O=C(O)c1cn(C2CC2)c2cc(N3CCN(CN4C(=O)SC(=Cc5ccccc5)C4=O)CC3)c(F)cc2c1=O` [Compound 16, 7-[4-(5-Benzylidene-2,4-dioxo-thiazolidin-3-ylmethyl)-piperazin-1-yl]-1-cyclo-propyl-6-fluoro-4-oxo-1,4-dihydro-quinoline-3-carboxylic acid] here?
Its melting point is 237 °C.

What about the “antibacterial activity relative to ciprofloxacin, B. subtilis” value [3] of the same compound?
The value was 93%.

What about the “antibacterial activity relative to ciprofloxacin, P. aeruginosa” value [4] of the same compound?
Its value is 93%.

And the “antibacterial activity relative to ciprofloxacin, S. aureus” value [1]?
Its value is 85%.

What about the “antibacterial activity relative to ciprofloxacin, E. coli” value [5] of the same compound?
Its value is 93%.

For `O=C(O)c1cn(C2CC2)c2cc(N3CCN(Cn4nc(CN5CCSCC5)oc4=S)CC3)c(F)cc2c1=O` [I], which “times more potent than ampicillin” value [6] is on record?
The value was over 41 times.

For `CO[C@@H]1[C@@H](OC(N)=O)[C@@H](O)[C@H](Oc2ccc3c(O)c(NC(=O)c4ccc(O)c(CC=C(C)C)c4)c(=O)oc3c2C)OC1(C)C` [Novobiocin], which IC50 [7] is on record?
Its IC50 is 26.7 µM.
